Experimental data taken from patent US20250236589A1, “THERAPEUTIC PHENETHYLAMINE COMPOSITIONS AND METHODS OF USE” (Cybin IRL Limited, priority 2022, published 2025).
“Also recorded” adds a separate entry of the source. Marks after values point to notes of the source that are not given here.

Columns and labels:
mice = assay: Head-twitch response (HTR) screening in mice; format: in vivo, mouse
C57BL/6J mice = assay: HTR after oral or s.c. administration in C57BL/6J mice; format: in vivo, mouse
Description: In another experiment, C57BL/6J mice were moved to the behavior room 30 min prior to administration of the test compound. Test compound was administered either s.c. or p.o. at 1 to 10 mg/kg immediately prior to testing and HTR activity was assessed from 1-30 min and again from 120-150 by blind experienced testers in real-time.

[1] = PK in Sprague-Dawley rats (plasma, brain, CSF); format: in vivo, rat
Description: In another rat PK study, plasma, brain, and cerebrospinal fluid (CSF) distribution of I-1 was evaluated in Sprague-Dawley male rats after intravenous (IV) administration at 1 mg/kg. Plasma, brain, and CSF samples were collected at specified time points up to 8 hr postdose after single dose administration of I-1. Blood samples were collected via cardiac puncture and the animals were euthanized via CO2 inhalation after blood samples were collected. The CSF samples were collected via cisterna magna puncture with the brain tissue extracted after decapitation (N=4 animals per time point). The concentrations of compound I-1 in plasma, with K2EDTA as the anticoagulant, brain tissue, and CSF were determined by LC-MS/MS (LLOQ, 0.3 ng/mL). PK parameters for plasma, CSF, and brain tissue were calculated as described above.

[2] = male, Sprague-Dawley, rat, CSF, IV 1 mg/kg
[3] = male, Sprague-Dawley, rat, brain, IV 1 mg/kg
[4] = male, Sprague-Dawley, rat, plasma, IV 1 mg/kg

COc1cc(SC(F)(F)F)c(OC)cc1CCN [Compound I-1, 2-(2,5-dimethoxy-4-((trifluoromethyl)thio)phenyl)ethan-1-amine]
HTR 15-25 min (mice; calculated using 0-5 min): 27.4 # | HTR 160-170 min (mice; calculated using 3 min time bin): 30.4 ### | HTR after oral administration (C57BL/6J mice; 1, 3, 10 mg/kg p.o.): elicited the HTR; also recorded: dose-dependent increase in HTRs | HTR duration versus DOI, oral (C57BL/6J mice; p.o.): greater duration than DOI | Tlast ([1]; CSF, IV 1 mg/kg): 6 h | CSF concentrations as share of brain concentrations ([1]; IV 1 mg/kg): 1.6% | Tlast ([1]; brain, IV 1 mg/kg): 8 h | total systemic clearance relative to total hepatic blood flow ([1]; hepatic blood flow 3.31 L/hr/kg): approximately 1.4 fold | Kp ([1]; male, Sprague-Dawley, rat, CSF/plasma, IV 1 mg/kg, read-out: CSF concentrations as share of plasma): 0.2 | AUC(0-inf) [1, 2]: 51.4 ng·h/mL | AUC(0-t) [1, 2]: 49.9 ng·h/mL | Cmax [1, 2]: 48.7 ng/mL | MRT inf [1, 2]: 1.51 h | Tmax [1, 2]: 0.083 h | half-life [1, 2]: 1.26 h | AUC(0-inf) [1, 3]: 3280 ng·h/mL | AUC(0-t) [1, 3]: 3220 ng·h/mL | Cmax [1, 3]: 1490 ng/mL | MRT inf [1, 3]: 1.98 h | Tmax [1, 3]: 0.25 h | half-life [1, 3]: 1.34 h | AUC(0-inf) [1, 4]: 210 ng·h/mL | AUC(0-t) [1, 4]: 207 ng·h/mL | C0 [1, 4]: 330 ng/mL | Cmax [1, 4]: 250 ng/mL | MRT inf [1, 4]: 1.19 h | Tmax [1, 4]: 0.083 h | clearance [1, 4]: 79.5 mL/min/kg | half-life [1, 4]: 1.53 h | Vd ([1]; male, Sprague-Dawley, rat, plasma, IV 1 mg/kg, read-out: Vss): 5.67 L/kg | Tlast ([1]; plasma, IV 1 mg/kg): 8 h | volume of distribution relative to total body water ([1]; total body water 0.7 L/kg): approximately 8.1 fold
